Measurements taken from patent US20110207691A1, “COBALAMIN COMPOSITIONS FOR THE TREATMENT OF CANCER” (BEBAAS, INC., priority 2006, published 2011).
Values joined by “and” are separate entries in the source; they are usually repeats but may differ in a detail not shown here. Identical values can stand only once.

Assays:
[1] = tested on: WM9 melanoma cells; conditions: cited from earlier work
[2] = tested on: BD-MB231 breast cancer cells; assay: Cell survival count after treatment, BD-MB231 breast cancer cells; type: cell-based; conditions: cultures grown for 48 hours, then counted
Procedure: Cell cultures were grown and maintained using standard protocols for the respective cell line. Suitable culturing methods are described in, for example, Cancer Cell Culture: Method and Protocols (Methods in Molecular Medicine) Langdon (Ed) Humana Press, 2003 and General Techniques of Cell Culture (Handbooks in Practical Animal Cell Biology) Harrison and Rae, Cambridge University Press, 2005. Cultures were grown for 48 hours and subsequently counted to determine the number surviving after treatment with hydroxycobalamin, methylcobalamin or adenosylcobalamin and the aforementioned cobalamin analogs in combination with a nitric oxide-cobalamin complex. Determination of cell survival can be accomplished using, for example, a hemocytometer and Trypan Blue staining. […] Total number of cells can be determined living and dead cells can be determined and treatments compared.

nitrosylcobalamin
effect on WM9 melanoma cells [1]: anti-proliferative effect

C/C1=C2/[N-][C@H]([C@H](CC(N)=O)[C@@]2(C)CCC(=O)NC[C@@H](C)OP(=O)([O-])O[C@H]2[C@@H](O)[C@@H](n3cnc4cc(C)c(C)cc43)O[C@@H]2CO)[C@]2(C)N=C(/C(C)=C3N=C(/C=C4N=C1[C@@H](CCC(N)=O)C\4(C)C)[C@@H](CCC(N)=O)[C@]\3(C)CC(N)=O)[C@@H](CCC(N)=O)[C@]2(C)CC(N)=O.[Co+3].[OH-] [hydroxycobalamin]
number of surviving cells (mean) [2]: 472 and 729 and 728
